The values below are quoted from earlier work in patent publication US20260232690A1, “Treatment of the Chronic Effects of Brain Injury Using Rho Kinase Inhibitors” (WOOLSEY PHARMACEUTICALS, INC., priority 2023, published 2026).

In this data set the test system is salt-loaded hypertensive stroke-prone rats.

As for `Cl.O=S(=O)(c1cccc2cnccc12)N1CCCNCC1` [Fasudil, 5-(1,4-Diazepane-1-sulfonyl) isoquinoline], the nephrosclerosis entry is recorded as “attenuate nephrosclerosis” and the survival entry is “improve survival”.
